Measurements published in US11083729B2, “Methods of treating cancer with small molecule NF-κB inhibitors” (ImmuneTarget, Inc., priority 2017, dated 2021).

Experiments:
NF-κB = NF-κB GFP assay in NFκB/Jurkat/GFP transcriptional reporter cells stimulated with TNF-α; type: cell-based; details: Homo sapiens, TNF-α 5 ng/ml, 24 hours, read-out: NF-KB GFP IC50
Protocol: NFκB/Jurkat/GFP transcriptional reporter cell line was obtained from SBI System Biosciences. NF-κB/Jurkat/GFP™ Reporter cells (5×10^5 cells) were plated at a concentration of 1 million cells/ml into each well of a 24-well plate. TNF-α (5 ng/ml) was added. Compounds were added via serial dilutions to corresponding wells. After 24 hours, 100 μl of the cells were transferred to a well of a Costar® UV plate (96 well, No lid, w/UV Transparent Flat Bottom, Corning, N.Y., Cat #3635) and the intensity of GFP fluorescence was measured (Excitation 485+/−20, Emission 528+/−20) in a Synergy™ HT Multi-Detection Microplate Reader (BioTech, Winooski, Vt.). The intensities of GFP measured were plotted against the […].

c-Rel protein = target: T1, c-Rel protein (Homo sapiens, UniProt Q04864); test: Electrophoretic Mobility Shift Assay (EMSA), c-Rel binding to CD28RE oligonucleotide; details: 10 nM c-Rel protein
T1 sequence (Q04864 1-619): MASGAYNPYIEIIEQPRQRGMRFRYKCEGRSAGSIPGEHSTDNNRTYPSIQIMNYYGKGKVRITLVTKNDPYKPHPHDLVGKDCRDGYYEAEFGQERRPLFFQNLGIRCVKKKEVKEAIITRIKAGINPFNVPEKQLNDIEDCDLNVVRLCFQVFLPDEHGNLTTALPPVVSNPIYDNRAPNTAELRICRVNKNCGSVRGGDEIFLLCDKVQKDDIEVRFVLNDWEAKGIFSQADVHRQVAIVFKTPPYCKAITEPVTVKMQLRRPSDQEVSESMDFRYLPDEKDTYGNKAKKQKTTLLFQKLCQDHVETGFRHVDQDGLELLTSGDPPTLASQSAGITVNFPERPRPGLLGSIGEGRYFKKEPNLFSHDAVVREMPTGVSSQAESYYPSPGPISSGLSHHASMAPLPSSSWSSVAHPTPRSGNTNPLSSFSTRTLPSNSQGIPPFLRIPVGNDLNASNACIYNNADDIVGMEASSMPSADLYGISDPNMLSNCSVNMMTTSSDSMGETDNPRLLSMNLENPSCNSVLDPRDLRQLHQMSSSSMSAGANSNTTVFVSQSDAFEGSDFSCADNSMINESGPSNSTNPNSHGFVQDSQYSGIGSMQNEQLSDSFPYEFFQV
Protocol: DNA binding reaction (20 μL) was carried out in 1×DNA Binding Buffer (10 mM Tris, 40 mM NaCl, 1 mM EDTA, 4% glycerol) with 10 nM c-Rel protein and 0.5 ng phosphor-labeled CD28RE oligonucleotide for 10 minutes at room temperature in 96-well plates. Test compounds, in serial dilutions, were added into each well, and further incubated for 15 minutes before loading onto native 5% polyacrylamide gel. Electrophoresis proceeded for 2.5 hours at 160V. Radioactive signals were quantified using Phospho-Imager. IC50 of compounds of example 1 to 75 were determined by quantifying the intensity of Rel/NF-κB inhibition in EMSA using phospho-imager. An example of EMSA data of the present invention is shown for compound 6 in FIG. 2.

PLC/PRF/5 [1] = test: CellTiter-Glo IG50, Example 9 HCC panel, PLC/PRF/5; type: cell-based; details: Homo sapiens, PLC/PRF/5, 72 hours
Protocol: (§1) The cells were harvested during the logarithmic growth period and counted. Cell concentrations were adjusted to the appropriate number in appropriate medium and 90 μl cell suspensions were added to 96-well plates. When cells were added, the plates were shaken gently to distribute the cells evenly. Cells were incubated at 37° C. and 5% CO2.
(§2) 3× serial dilutions of test compound stock solutions with respective solvents were prepared. The stock solutions were diluted with culture medium to generate 10× working solutions of the test compounds. 10 μl of the 10× test compound solutions were added to each well in triplicate for each concentration. Plates were incubated for 72 hours in a humidified incubator at 37° C. and 5% CO2.
(§3) CellTiter-Glo (CTG) solution was thawed and equilibrated to room temperature. 50 μl of CTG were added to each well and the contents were mixed for 2 minutes on a plate shaker. Cells were incubated for 10 minutes before luminescence signal was recorded using Envision.
(§4) Cell viability was plotted with GraphPad Prism version 5 and the IG50 was calculated for each cell line. The graphical curves were fitted using a nonlinear regression model with a sigmoidal dose response. IG50 is the concentration of test drug where 100×T/C=50 (the optical density of the test well after a 3-day period of exposure to test drug is T; the control optical density is C).
(§5) The cells were cultured in an atmosphere of 37° C., 5% CO2 and 95% humidity. All culture media and FBS were purchased from GIBCO, Hyclone or Sigma, USA. The media used for cell culture is described in the table below.
(§6) Following the cell culture protocol and data analysis methods described in Example 8, the following IG50 results (in μM) were observed: […]

HUH7 [2] = test: CellTiter-Glo IG50, Example 10 HCC panel, HUH7; type: cell-based; details: Homo sapiens, Huh-7, HUH7, 72 hours
Protocol: as §1, §2, §3, §4, §5
(§7) Following the cell culture protocol and data analysis method described in Example 8, the following IG50 results (in μM) were observed: […]

JHH5 [3] = test: CellTiter-Glo IG50, Example 9 HCC panel, JHH5; type: cell-based; details: JHH5, 72 hours
Protocol: as §1, §2, §3, §4, §5, §6

HepG2 [4] = test: CellTiter-Glo IG50, Example 10 HCC panel, HepG2; type: cell-based; details: Homo sapiens, HepG2, 72 hours
Protocol: as §1, §2, §3, §4, §5, §7

SNU878 [5] = test: CellTiter-Glo IG50, Example 10 HCC panel, SNU878; type: cell-based; details: SNU878, 72 hours
Protocol: as §1, §2, §3, §4, §5, §7

HUH7 [6] = test: CellTiter-Glo IG50, Example 9 HCC panel, HUH7; type: cell-based; details: Homo sapiens, Huh-7, HUH7, 72 hours
Protocol: as §1, §2, §3, §4, §5, §6

PBMC [7] = test: CellTiter-Glo IG50, Example 9 HCC panel, PBMC; type: cell-based; details: 72 hours
Protocol: as §1, §2, §3, §4, §5, §6

Hep3B [8] = test: CellTiter-Glo IG50, Example 10 HCC panel, Hep3B; type: cell-based; details: Homo sapiens, 72 hours
Protocol: as §1, §2, §3, §4, §5, §7

Hep3B [9] = test: CellTiter-Glo IG50, Example 9 HCC panel, Hep3B; type: cell-based; details: Homo sapiens, 72 hours
Protocol: as §1, §2, §3, §4, §5, §6

JHH5 [10] = test: CellTiter-Glo IG50, Example 10 HCC panel, JHH5; type: cell-based; details: JHH5, 72 hours
Protocol: as §1, §2, §3, §4, §5, §7

PLC/PRF/5 [11] = test: CellTiter-Glo IG50, Example 10 HCC panel, PLC/PRF/5; type: cell-based; details: Homo sapiens, PLC/PRF/5, 72 hours
Protocol: as §1, §2, §3, §4, §5, §7

HepG2 [12] = test: CellTiter-Glo IG50, Example 9 HCC panel, HepG2; type: cell-based; details: Homo sapiens, HepG2, 72 hours
Protocol: as §1, §2, §3, §4, §5, §6

SNU878 [13] = test: CellTiter-Glo IG50, Example 9 HCC panel, SNU878; type: cell-based; details: SNU878, 72 hours
Protocol: as §1, §2, §3, §4, §5, §6

PBMC [14] = test: CellTiter-Glo IG50, Example 10 HCC panel, PBMC; type: cell-based; details: 72 hours
Protocol: as §1, §2, §3, §4, §5, §7

PLC/PRF/5 [15] = test: CellTiter-Glo IG50, Example 8, PLC/PRF/5; type: cell-based; details: Homo sapiens, PLC/PRF/5, 72 hours
Protocol: (§8) Various pancreatic, liver, colon, breast, and stomach cancer cell lines were exposed to the NF-κB inhibitors of the present invention, including, for example, IT-839, IT-843, IT-848, and IT-878, and assessed for IG50 in the CellTiter Glo 2.0 assay.
as §5, §1, §2, §3, §4

AGS = test: CellTiter-Glo IG50, Example 8, AGS; type: cell-based; details: Homo sapiens, 72 hours
Protocol: as §8, §5, §1, §2, §3, §4

HepG2 [16] = test: CellTiter-Glo IG50, Example 8, HepG2; type: cell-based; details: Homo sapiens, HepG2, 72 hours
Protocol: as §8, §5, §1, §2, §3, §4

HCT116 = test: CellTiter-Glo IG50, Example 8, HCT116; type: cell-based; details: Homo sapiens, HCT-116, HCT116, 72 hours
Protocol: as §8, §5, §1, §2, §3, §4

LoVo = test: CellTiter-Glo IG50, Example 8, LoVo; type: cell-based; details: Homo sapiens, 72 hours
Protocol: as §8, §5, §1, §2, §3, §4

Hep3B [17] = test: CellTiter-Glo IG50, Example 8, Hep3B; type: cell-based; details: Homo sapiens, 72 hours
Protocol: as §8, §5, §1, §2, §3, §4

Capan-1 = test: CellTiter-Glo IG50, Example 8, Capan-1; type: cell-based; details: Homo sapiens, Capan-1, 72 hours
Protocol: as §8, §5, §1, §2, §3, §4

T47D = test: CellTiter-Glo IG50, Example 8, T47D; type: cell-based; details: Homo sapiens, 72 hours
Protocol: as §8, §5, §1, §2, §3, §4

MCF-7 = test: CellTiter-Glo IG50, Example 8, MCF-7; type: cell-based; details: Homo sapiens, MCF7, MCF-7, 72 hours
Protocol: as §8, §5, §1, §2, §3, §4

MKN45 = test: CellTiter-Glo IG50, Example 8, MKN45; type: cell-based; details: Homo sapiens, MKN-45, MKN45, 72 hours
Protocol: as §8, §5, §1, §2, §3, §4

MIAPACA-2 = test: CellTiter-Glo IG50, Example 8, MIAPACA-2; type: cell-based; details: Homo sapiens, MIA PaCa-2, MIAPACA-2, 72 hours
Protocol: as §8, §5, §1, §2, §3, §4

HT-29 = test: CellTiter-Glo IG50, Example 8, HT-29; type: cell-based; details: Homo sapiens, HT-29, 72 hours
Protocol: as §8, §5, §1, §2, §3, §4

PANC-1 = test: CellTiter-Glo IG50, Example 8, PANC-1; type: cell-based; details: Homo sapiens, PANC-1, 72 hours
Protocol: as §8, §5, §1, §2, §3, §4

KATO III = test: CellTiter-Glo IG50, Example 8, KATO III; type: cell-based; details: Homo sapiens, 72 hours
Protocol: as §8, §5, §1, §2, §3, §4

MDA-MB-231 = test: CellTiter-Glo IG50, Example 8, MDA-MB-231; type: cell-based; details: Homo sapiens, MDA-MB-231, 72 hours
Protocol: as §8, §5, §1, §2, §3, §4

Row | IC50 (PLC/PRF/5 [1]) [µM] | IC50 (HUH7 [2]) [µM] | IC50 (JHH5 [3]) [µM] | IC50 (HepG2 [4]) [µM] | IC50 (SNU878 [5]) [µM] | IC50 (HUH7 [6]) [µM] | IC50 (Hep3B [8]) [µM] | IC50 (Hep3B [9]) [µM] | IC50 (JHH5 [10]) [µM] | IC50 (PLC/PRF/5 [11]) [µM] | IC50 (HepG2 [12]) [µM] | IC50 (SNU878 [13]) [µM] | SMILES | IC50 (PBMC [7]) [µM] | IC50 (PBMC [14]) [µM] | other results
1 |  |  |  |  |  |  |  |  |  |  |  |  | O=C(O)CCCCOc1ccc2cc3c(=O)[nH]c(=O)nc-3oc2c1Cl [compound 54] |  |  | IC50 (NF-κB): < 20 µM; IC50 (c-Rel protein): < 5 µM
2 | 7.66 | 6.02 | 8.11 | 6.95 | 9.8 | 2.72 | 4.03 | 1.81 | 10.1 | 9.22 | 4.14 | 10.7 | CC(C)(C)CCOc1ccc2cc3c(=O)[nH]c(=O)nc-3oc2c1Cl [IT-845] | 0.274 | 2.4 | 
3 | > 16 | 7.72 | 12.9 | 9.95 | > 16 | 4.25 | 6.09 | 3.51 | 13.4 | > 16 | 5.84 | 14.6 | CCCCCCOc1ccc2cc3c(=O)[nH]c(=O)nc-3oc2c1Cl [IT-848] | 1.19 | 3.63 | IC50 (PLC/PRF/5 [15]): > 16 µM; IC50 (AGS): 7.67 µM; IC50 (HepG2 [16]): 6.7 µM; IC50 (HCT116): > 16 µM; IC50 (LoVo): 5.07 µM; IC50 (Hep3B [17]): 2.43 µM; IC50 (Capan-1): > 16 µM; IC50 (T47D): 6.14 µM; IC50 (MCF-7): 5.19 µM; IC50 (MKN45): > 16 µM; IC50 (MIAPACA-2): > 16 µM; IC50 (HT-29): > 16 µM; IC50 (PANC-1): 9.88 µM; IC50 (KATO III): > 16 µM; IC50 (MDA-MB-231): 2.35 µM
